Results from PubChem BioAssay AID248 (DTP/NCI, 2004).
Values joined by “and” are separate entries in the source; they are usually repeats but may differ in a detail not shown here. Equal values may be shown once. Toxic doses and inconclusive results are not listed.

System: L1210 leukemia ip in BDF1 mice, survival T/C
Test: NCI In Vivo Anticancer Drug Screen. Data for tumor model L1210 Leukemia (intraperitoneal) in B6D2F1 (BDF1) mice
Details: higher = longer survival
Summary of the method: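 Ratio derived from survival: compound-dosed mice over vehicle-dosed mice, all bearing a transplantable tumor.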

In the case of `COc1cc2cc3c4cc(OC)c(OC)cc4cc[n+]3c(C)c2cc1OC` (tested in a mixture with another compound), the T/C (endpoint: mean survival time, dose: 5.0 mg/kg/injection, schedule: Q01DX009 (ip), vehicle: saline) is reported as 105 % of control and 113 % of control, the T/C (endpoint: mean survival time, dose: 8.0 mg/kg/injection, schedule: Q01DX009 (ip), vehicle: Klucel (hydroxypropylcellulose) (HPC)) is reported as 114 % of control and the T/C (endpoint: mean survival time, dose: 10.0 mg/kg/injection, schedule: Q01DX009 (ip), vehicle: saline) is reported as 105 % of control. The T/C (endpoint: mean survival time, dose: 16.0 mg/kg/injection, schedule: Q01DX009 (ip), vehicle: clinical formulation) was 116 % of control, the T/C (endpoint: mean survival time, dose: 16.0 mg/kg/injection, schedule: Q03HX024 (ip), vehicle: saline) was 107 % of control and the T/C (endpoint: mean survival time, dose: 40.0 mg/kg/injection, schedule: Q01DX009 (ip), vehicle: saline) was 116 % of control. The T/C (endpoint: mean survival time, dose: 64.0 mg/kg/injection, schedule: Q03HX024 (ip), vehicle: saline) was 113 % of control, the T/C (endpoint: mean survival time, dose: 80.0 mg/kg/injection, schedule: Q01DX009 (ip), vehicle: saline) was 117 % of control and the T/C (endpoint: mean survival time, dose: 100.0 mg/kg/injection, schedule: Q04DX003 (ip), vehicle: saline with Tween-80) was 116 % of control. The T/C (endpoint: mean survival time, dose: 128.0 mg/kg/injection, schedule: Q08DX002 (ip), vehicle: saline) was 112 % of control, the T/C (endpoint: mean survival time, dose: 150.0 mg/kg/injection, schedule: Q04DX003 (ip), vehicle: saline with Tween-80) was 117 % of control and the T/C (endpoint: mean survival time, dose: 200.0 mg/kg/injection, schedule: Q04DX002 (ip), vehicle: saline) was 105 % of control. For the same compound, the T/C (endpoint: mean survival time, dose: 256.0 mg/kg/injection, schedule: Q04DX003 (ip), vehicle: saline) was 118 % of control, the T/C (endpoint: median survival time, dose: 8.0 mg/kg/injection, schedule: Q01DX009 (ip), vehicle: Klucel (hydroxypropylcellulose) (HPC)) was 108 % of control and the T/C (endpoint: median survival time, dose: 8.0 mg/kg/injection, schedule: Q01DX009 (ip), vehicle: clinical formulation) was 110 % of control. For the same compound, the T/C (endpoint: median survival time, dose: 8.0 mg/kg/injection, schedule: Q01DX009 (ip), vehicle: other) was 117 % of control, the T/C (endpoint: median survival time, dose: 8.0 mg/kg/injection, schedule: Q01DX009 (ip), vehicle: water) was 111 % of control and the T/C (endpoint: median survival time, dose: 8.0 mg/kg/injection, schedule: Q01DX009 (oral), vehicle: other) was 99 % of control and 113 % of control. The T/C (endpoint: median survival time, dose: 8.0 mg/kg/injection, schedule: Q01DX009 (sc), vehicle: other) was 104 % of control, the T/C (endpoint: median survival time, dose: 16.0 mg/kg/injection, schedule: Q01DX009 (ip), vehicle: Klucel (hydroxypropylcellulose) (HPC)) was 104 % of control and the T/C (endpoint: median survival time, dose: 16.0 mg/kg/injection, schedule: Q01DX009 (ip), vehicle: clinical formulation) was 114 % of control. The T/C (endpoint: median survival time, dose: 16.0 mg/kg/injection, schedule: Q01DX009 (oral), vehicle: other) was 98 % of control and 105 % of control, the T/C (endpoint: median survival time, dose: 16.0 mg/kg/injection, schedule: Q01DX009 (oral), vehicle: saline) was 100 % of control and the T/C (endpoint: median survival time, dose: 16.0 mg/kg/injection, schedule: Q01DX009 (sc), vehicle: other) was 104 % of control. The T/C (endpoint: median survival time, dose: 25.0 mg/kg/injection, schedule: Q01DX009 (ip), vehicle: Klucel (hydroxypropylcellulose) (HPC)) was 98 % of control and 99 % of control, the T/C (endpoint: median survival time, dose: 25.0 mg/kg/injection, schedule: Q01DX009 (ip), vehicle: other) was 98 % of control and 99 % of control and the T/C (endpoint: median survival time, dose: 25.0 mg/kg/injection, schedule: Q01DX009 (ip), vehicle: saline) was 99 % of control and 100 % of control. For the same compound, the T/C (endpoint: median survival time, dose: 32.0 mg/kg/injection, schedule: Q01DX001 (oral), vehicle: saline) was 95 % of control and 100 % of control, the T/C (endpoint: median survival time, dose: 32.0 mg/kg/injection, schedule: Q01DX001 (sc), vehicle: saline) was 95 % of control and the T/C (endpoint: median survival time, dose: 32.0 mg/kg/injection, schedule: Q01DX009 (oral), vehicle: other) was 115 % of control and 116 % of control. The T/C (endpoint: median survival time, dose: 32.0 mg/kg/injection, schedule: Q01DX009 (oral), vehicle: saline) was 100 % of control, the T/C (endpoint: median survival time, dose: 32.0 mg/kg/injection, schedule: Q01DX009 (sc), vehicle: other) was 100 % of control and the T/C (endpoint: median survival time, dose: 32.0 mg/kg/injection, schedule: Q01DX009 (sc), vehicle: saline) was 95 % of control. For the same compound, the T/C (endpoint: median survival time, dose: 50.0 mg/kg/injection, schedule: Q01DX009 (ip), vehicle: Klucel (hydroxypropylcellulose) (HPC)) was 100 % of control and 101 % of control, the T/C (endpoint: median survival time, dose: 50.0 mg/kg/injection, schedule: Q01DX009 (ip), vehicle: other) was 95 % of control and 96 % of control and the T/C (endpoint: median survival time, dose: 50.0 mg/kg/injection, schedule: Q01DX009 (ip), vehicle: saline) was 100 % of control and 101 % of control. The T/C (endpoint: median survival time, dose: 64.0 mg/kg/injection, schedule: Q01DX001 (ip), vehicle: other) was 118 % of control, the T/C (endpoint: median survival time, dose: 64.0 mg/kg/injection, schedule: Q01DX001 (oral), vehicle: other) was 100 % of control and 101 % of control and the T/C (endpoint: median survival time, dose: 64.0 mg/kg/injection, schedule: Q01DX001 (oral), vehicle: saline) was 100 % of control. For the same compound, the T/C (endpoint: median survival time, dose: 64.0 mg/kg/injection, schedule: Q01DX001 (sc), vehicle: other) was 114 % of control, the T/C (endpoint: median survival time, dose: 64.0 mg/kg/injection, schedule: Q01DX009 (oral), vehicle: other) was 106 % of control and 114 % of control and the T/C (endpoint: median survival time, dose: 64.0 mg/kg/injection, schedule: Q01DX009 (oral), vehicle: saline) was 100 % of control. The T/C (endpoint: median survival time, dose: 64.0 mg/kg/injection, schedule: Q01DX009 (sc), vehicle: other) was 101 % of control, the T/C (endpoint: median survival time, dose: 64.0 mg/kg/injection, schedule: Q01DX009 (sc), vehicle: saline) was 100 % of control and the T/C (endpoint: median survival time, dose: 64.0 mg/kg/injection, schedule: Q04DX003 (sc), vehicle: saline) was 100 % of control. For the same compound, the T/C (endpoint: median survival time, dose: 100.0 mg/kg/injection, schedule: Q01DX009 (ip), vehicle: Klucel (hydroxypropylcellulose) (HPC)) was 96 % of control and 97 % of control, the T/C (endpoint: median survival time, dose: 100.0 mg/kg/injection, schedule: Q01DX009 (ip), vehicle: saline) was 105 % of control and 108 % of control and the T/C (endpoint: median survival time, dose: 128.0 mg/kg/injection, schedule: Q01DX001 (oral), vehicle: other) was 100 % of control and 104 % of control. For the same compound, the T/C (endpoint: median survival time, dose: 128.0 mg/kg/injection, schedule: Q01DX001 (oral), vehicle: saline) was 100 % of control, the T/C (endpoint: median survival time, dose: 128.0 mg/kg/injection, schedule: Q01DX001 (sc), vehicle: other) was 100 % of control and the T/C (endpoint: median survival time, dose: 128.0 mg/kg/injection, schedule: Q01DX001 (sc), vehicle: saline) was 100 % of control. The T/C (endpoint: median survival time, dose: 128.0 mg/kg/injection, schedule: Q01DX009 (ip), vehicle: water) was 98 % of control, the T/C (endpoint: median survival time, dose: 128.0 mg/kg/injection, schedule: Q01DX009 (oral), vehicle: other) was 98 % of control and 110 % of control and the T/C (endpoint: median survival time, dose: 128.0 mg/kg/injection, schedule: Q01DX009 (oral), vehicle: saline) was 100 % of control. The T/C (endpoint: median survival time, dose: 128.0 mg/kg/injection, schedule: Q01DX009 (sc), vehicle: other) was 100 % of control, the T/C (endpoint: median survival time, dose: 128.0 mg/kg/injection, schedule: Q01DX009 (sc), vehicle: saline) was 105 % of control and the T/C (endpoint: median survival time, dose: 200.0 mg/kg/injection, schedule: Q01DX009 (ip), vehicle: Klucel (hydroxypropylcellulose) (HPC)) was 95 % of control and 96 % of control. The T/C (endpoint: median survival time, dose: 200.0 mg/kg/injection, schedule: Q01DX009 (ip), vehicle: other) was 117 % of control, the T/C (endpoint: median survival time, dose: 200.0 mg/kg/injection, schedule: Q01DX009 (ip), vehicle: saline) was 95 % of control and 98 % of control and the T/C (endpoint: median survival time, dose: 256.0 mg/kg/injection, schedule: Q01DX001 (oral), vehicle: other) was 99 % of control and 100 % of control. For the same compound, the T/C (endpoint: median survival time, dose: 256.0 mg/kg/injection, schedule: Q01DX001 (oral), vehicle: saline) was 100 % of control, the T/C (endpoint: median survival time, dose: 256.0 mg/kg/injection, schedule: Q01DX001 (sc), vehicle: other) was 100 % of control and the T/C (endpoint: median survival time, dose: 256.0 mg/kg/injection, schedule: Q01DX009 (oral), vehicle: other) was 100 % of control and 110 % of control. The T/C (endpoint: median survival time, dose: 256.0 mg/kg/injection, schedule: Q01DX009 (oral), vehicle: saline) was 110 % of control, the T/C (endpoint: median survival time, dose: 256.0 mg/kg/injection, schedule: Q01DX009 (sc), vehicle: other) was 99 % of control and the T/C (endpoint: median survival time, dose: 256.0 mg/kg/injection, schedule: Q01DX009 (sc), vehicle: saline) was 110 % of control. For the same compound, the T/C (endpoint: median survival time, dose: 256.0 mg/kg/injection, schedule: Q04DX003 (sc), vehicle: saline) was 100 % of control, the T/C (endpoint: median survival time, dose: 400.0 mg/kg/injection, schedule: Q01DX009 (ip), vehicle: Klucel (hydroxypropylcellulose) (HPC)) was 96 % of control and 97 % of control and the T/C (endpoint: median survival time, dose: 512.0 mg/kg/injection, schedule: Q01DX001 (oral), vehicle: other) was 98 % of control and 101 % of control. The T/C (endpoint: median survival time, dose: 512.0 mg/kg/injection, schedule: Q01DX001 (oral), vehicle: saline) was 100 % of control, the T/C (endpoint: median survival time, dose: 512.0 mg/kg/injection, schedule: Q01DX001 (sc), vehicle: other) was 99 % of control and the T/C (endpoint: median survival time, dose: 512.0 mg/kg/injection, schedule: Q01DX001 (sc), vehicle: saline) was 100 % of control. For the same compound, the T/C (endpoint: median survival time, dose: 512.0 mg/kg/injection, schedule: Q08DX002 (ip), vehicle: other) was 99 % of control and the T/C (endpoint: median survival time, dose: 1024.0 mg/kg/injection, schedule: Q01DX001 (oral), vehicle: other) was 98 % of control and 100 % of control.

In the case of `CCCCCCCCCCCC(=O)N/N=C/c1ccccc1OC`, the T/C (endpoint: mean survival time, dose: 25.0 mg/kg/injection, schedule: Q01DX009 (ip), vehicle: Klucel (hydroxypropylcellulose) (HPC)) is reported as 90 % of control, the T/C (endpoint: mean survival time, dose: 50.0 mg/kg/injection, schedule: Q01DX009 (ip), vehicle: Klucel (hydroxypropylcellulose) (HPC)) is reported as 94 % of control and the T/C (endpoint: mean survival time, dose: 100.0 mg/kg/injection, schedule: Q01DX009 (ip), vehicle: Klucel (hydroxypropylcellulose) (HPC)) is reported as 87 % of control and 90 % of control.

With `O=NN(CCF)C(=O)NC1CCSCC1` the T/C (endpoint: mean survival time, dose: 24.0 mg/kg/injection, schedule: Q01DX001 (ip), vehicle: other) was 334 % of control, the T/C (endpoint: mean survival time, dose: 36.0 mg/kg/injection, schedule: Q01DX001 (ip), vehicle: other) was 344 % of control and the T/C (endpoint: mean survival time, dose: 54.0 mg/kg/injection, schedule: Q01DX001 (ip), vehicle: other) was 344 % of control.

For `Cc1ccccc1N=NN(C)C`, the T/C (endpoint: mean survival time, dose: 100.0 mg/kg/injection, schedule: Q01DX001 (ip), vehicle: carboxymethylcellulose (CMC)) was 106 % of control and the T/C (endpoint: mean survival time, dose: 200.0 mg/kg/injection, schedule: Q01DX001 (ip), vehicle: carboxymethylcellulose (CMC)) was 106 % of control.
